Experiment [1] has as its system phospho-ERK in MDA-MB-231 cells. Kind of experiment: Phospho-ERK Cytoblot Assay with MDA-MB 231 cells. Format: cell-based. As to conditions: Homo sapiens, 1 hour compound incubation, phospho-p44/42 MAP kinase (Thr202/Tyr204). The text has this:
The utility of the compounds of the present invention can also be illustrated, for example, by their activity in the phosph-ERK Assay described below. Growth-factor induction of the RAS/MEK/ERK signaling pathway leads to the induction of phosphorylation of a number of proteins including phospho-ERK (See C. J. Marshall, MAP kinase kinase kinase, MAP kinase kinase and MAP kinase, Current Opinions in Genetic Development, 1994, 4: p. 82-89). The importance of this pathway in cancer biology has been recognized in the art. Activation of the RAS signaling pathway is an important mechanism by which cancer develops (R. Herrera, et al, Unraveling the complexities of the Raf/MAP kinase pathway for pharmacological intervention, Trends Mol. Med., 2002, 8: p. S27-31). Mutational activation of RAS or downstream effectors as well as growth factor induction of this pathway leads to increased tumor cell proliferation and survival (A. A. Adjei, Blocking oncogenic RAS signaling for cancer therapy, J. Natl. Cancer Inst., 2001, 93(14): p. 1062-1074; J Schlessinger, Cell signaling by receptor tyrosine kinases, Cell, 2000, 103: p. 211-225). Phospho-ERK Cytoblot Assay Protocol with MDA-MB 231 Cells MDA-MB-231 cells in log phase were plated at 25,000 cells/well in 96-well opaque plates (Falcon, USA Cat # 353296) in 100 μL RPMI medium containing 10% (w/v) FBS, and incubated overnight at 37° C. in 5% CO2 incubator. The following day, the growth medium was removed from the plate by aspiration and replaced with RPMI medium containing 0.1% BSA and example compounds diluted to generate final concentrations of 0.0, 0.001, 0.003, 0.01, 0.03, 0.1, 0.3, 1 and 3 μM. Cells were incubated with compound for 1 hour at 37° C. in a 5% CO2 incubator. The media was then removed from the plate by aspiration and the cells were washed once with 180 μL/well cold Tris Buffered Saline (TBS). After removal of the wash buffer, the cells were fixed by adding 180 μL of cold 3.7% (v/v) formaldehyde in TBS to each well for 1 hour at 4° C. After removal of the formaldehyde, the cells were treated with the addition of 60 μL of −20° C. methanol to each well for 5 minutes at 4° C. The methanol was removed and the cells were washed with 180 μL/well of 5% (w/v) BSA in TBS. To block non-specific antibody binding sites, each well was treated with 180 μL/well 5% BSA (w/v) in TBS for thirty minutes at room temperature. After removal of the blocking buffer, 50 μL of an anti-phospho-p44/42 MAP kinase (Thr202/Tyr204) rabbit polyclonal antibody (Cell Signaling, USA Cat # 9101) was added to each well at a dilution of 1:1000 in 5% (w/v) BSA in TBS, and the plate was incubated at 4° C. overnight. Plates were then washed three times with 300 μL/well TBS at room temperature. The plates were then incubated with 50 μL of Horseradish peroxidase (HRP)-conjugated goat-anti-rabbit antibody (Amersham, USA Cat. # NA934V) at a dilution of 1:1000 in 5% BSA-TBS at room temperature for 1 hr. After washing the plate three times with 300 μL/well TBS, 60 μL of Enhanced Chemiluminescence (ECL) reagent (Amersham, USA Cat# RPN2209) was added to each well and incubated at room temperature for five minutes. The plate was then read on a Perkin Elmer Victor 5 Multilabel Counter (#1420-0421). […] The utility of the compounds of the present invention can also be illustrated, for example, by their activity in the flk-1 (murine VEGFR2) Assay described below. The VEGF-VEGFR2 signaling pathway has been extensively characterized as an important regulator of angiogenesis and tumor angiogeneisis (See G. Yancopoulos et al, Vascular-specific growth factors and blood vessel formation, Nature, 2000, 407: p. 242-248; D. Shweiki et al, Induction of vascular endothelial growth factor expression by hypoxia and by glucose deficiency in multi cell spheroids: Implications for tumor angiogenesis, Proc. Natl. Acad. Sci, 1995, 92: p. 768-772). Inhibition of tumor cell growth by blocking this pathway has been well documented in the art. […]

The target of experiment [2] is T1, Flk-1 (murine VEGFR-2) kinase domain (Mus musculus, UniProt P35918).
T1 construct: 7 nM Flk-1 (kinase domain)
T1 sequence (P35918 832-1160 limits assumed): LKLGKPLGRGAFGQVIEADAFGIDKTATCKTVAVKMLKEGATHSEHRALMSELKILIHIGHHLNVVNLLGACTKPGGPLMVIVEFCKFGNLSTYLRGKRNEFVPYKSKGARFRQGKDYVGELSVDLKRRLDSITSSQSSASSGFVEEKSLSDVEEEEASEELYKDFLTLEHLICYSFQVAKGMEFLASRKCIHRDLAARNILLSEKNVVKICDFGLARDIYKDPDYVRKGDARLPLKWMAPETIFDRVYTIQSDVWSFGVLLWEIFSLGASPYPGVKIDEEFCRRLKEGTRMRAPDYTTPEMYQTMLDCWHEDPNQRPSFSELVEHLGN
Put plainly: Flk-1 (murine VEGFR-2) Biochemical Assay (TR-FRET). Particulars: 10 μM ATP, 7 nM Flk-1 (kinase domain).

Experiment [3] concerns P-AKT/PKB in H209 small cell lung carcinoma cells. Kind of experiment: P-AKT/PKB Cytoblot Assay with H209 cells (SCF-stimulated). It counts as cell-based. Particulars: Homo sapiens, NCI-H209, 1 hour compound incubation, SCF 25 ng/mL for 5 minutes, p-(S473) AKT. The text has this:
The utility of the compounds of the present invention can be illustrated, for example, by their activity in the P-AKT/PKB Cytoblot Assay described below. The involvement of the P-AKT/PKB[PI3K/AKt] pathway as a target for cancer chemotherapy has been recognized in the art. For example, see F. Chang et al, Involvement of PI3K/Akt pathway in cell cycle progression, apoptosis, and neoplastic transformation: a target for cancer chemotherapy, Leukemia, 2003, 17: p. 590-603; K. A. West et al, Activation of the PI3K/Akt pathway and chemotherapeutic resistance, Drug Resistance Updates, 2002, 5: p. 234-248; and P. Sen et al, Involvement of the Akt/PKB signaling pathway with disease processes, Molecular and Cellular Biochemistry, 2003, 253: p. 241-246.
P-AKT/PKB Cytoblot Assay Protocol with H209 Cells
H209 small cell lung carcinoma cells in log phase were plated at 50,000 cells/well in 96-well poly-lysine coated, clear bottom/black-sided plates (Becton-Dickinson, USA Cat # 354640) in 100 Ill RPMI medium containing 0.1% (w/v) BSA, and incubated overnight at 37° C. in 5% CO2 incubator. The following day, compounds (10 mM stock solutions in DMSO) were added to the plates to generate final concentrations of 0.0, 0.01, 0.03, 0.1, 0.3, 1.0, 3.0 and 10 μM for IC50 determinations and incubated for 1 hour at 37° C. Cells were then left untreated or stimulated with Stem Cell Factor (SCF: Biosource Cat # PHC2116) at a final concentration of 25 ng/mL for 5 minutes at 37° C. in 5% CO2 incubator. The media was then removed using a vacuum manifold and the cells were washed once with Tris Buffered Saline (TBS). Cells were then fixed by adding 200 μl of cold 3.7% (v/v) formaldehyde in TBS to each well for 15 minutes at 4° C. After removal of the formaldehyde, the cells were treated with the addition of 50 μl of methanol (at −20° C.) to each well for 5 minutes. After removal of the methanol, 200 μl of 1% (w/v) BSA in TBS was added to each well to block non-specific antibody binding sites and the plate was incubated at room temperature for 30 minutes.
After removal of the blocking buffer, 50 μl of p-(S473) AKT rabbit polyclonal antibody (Cell Signaling, USA Cat # 9277S) was added at a dilution of 1:250 in 0.1% (w/v) BSA in TBS, and the plate was incubated at room temperature for 1 hour. Plates were then washed 3 times with cold TBS containing 0.05% (v/v) Tween 20 (TBS-T) and 100 μl of Horseradish peroxidase (HRP)-conjugated goat-anti-rabbit antibody (Amersham, USA Cat # NA934V) at a dilution of 1:250 in TBS-T was added and the plate was incubated at room temperature for 1 h. After washing with ice-cold TBS-T four times, 100 μl of Enhanced Chemiluminescence (ECL) reagent (Amersham, USA Cat# RPN2209) was added to each well and mixed on a mini-orbital shaker for 1 min. The plate was then read on a Perkin Elmer Victor 5 Multilabel Counter (#1420-0421).

The structures appear in SMILES notation. pIC50: −log10 of the molar value.

With `CC(=O)Nc1cc(CNc2ncsc2C(=O)Nc2ccc3c(c2)OC(F)(F)C(F)(F)O3)ccn1` [Example 11, 4-({[2-(acetylamino)pyridin-4-yl]methyl}amino)-N-(2,2,3,3-tetrafluoro-2,3-dihydro-1,4-benzodioxin-6-yl)-1,3-thiazole-5-carboxamide], the figures for the pIC50 in experiment [1], in experiment [2] and in experiment [3] were greater than 5.52, greater than 6.30 and greater than 6.30, respectively.
For `CC(=O)OCC(=O)Nc1cc(CNc2ncsc2C(=O)Nc2ccc3c(c2)OC(F)(F)O3)ccn1` [Example 13, 2-[(4-{[(5-{[(2,2-difluoro-1,3-benzodioxol-5-yl)amino]carbonyl}-1,3-thiazol-4-yl)amino]methyl}pyridin-2-yl)amino]-2-oxoethyl acetate], the pIC50 is greater than 5.52 in experiment [1], greater than 6.30 in experiment [2] and greater than 6.30 in experiment [3].
As for `COCC(=O)Nc1cc(CNc2ncsc2C(=O)Nc2ccc3c(c2)OC(F)(F)C(F)(F)O3)ccn1` [Example 8, 4-[({2-[(methoxyacetyl)amino]pyridin-4-yl}methyl)amino]-N-(2,2,3,3-tetrafluoro-2,3-dihydro-1,4-benzodioxin-6-yl)-1,3-thiazole-5-carboxamide], the figures for the pIC50 in experiment [1], in experiment [2] and in experiment [3] were greater than 5.52, greater than 6.30 and greater than 6.30, respectively.
With `CCNC(=O)Nc1cc(CNc2ncsc2C(=O)Nc2ccc3c(c2)OC(F)(F)O3)ccn1` [Example 17, N-(2,2-difluoro-1,3-benzodioxol-5-yl)-4-{[(2-{[(ethylamino)carbonyl]amino}pyridin-4-yl)methyl]amino}-1,3-thiazole-5-carboxamide], the figures for the pIC50 in experiment [1], in experiment [2] and in experiment [3] were greater than 5.52, greater than 6.30 and greater than 6.30, respectively.
On to `CNC(=O)c1cc(CNc2ncsc2C(=O)Nc2ccc3c(c2)OC(F)(F)O3)ccn1` [Example 1, 4-{[(5-{[(2,2-difluoro-1,3-benzodioxol-5-yl)amino]carbonyl}-1,3-thiazol-4-yl)amino]methyl}-N-methylpyridine-2-carboxamide], for which the negative-log IC50 (pIC50) in experiment [1] was greater than 5.52; in experiment [2] it was greater than 6.30; in experiment [3], greater than 6.30.
As for `CC(=O)Nc1cc(CNc2ncsc2C(=O)Nc2ccc3c(c2)OC(F)(F)O3)ccn1` [Example 10, 4-([{2-(acetylamino)pyridin-4-yl]methyl}amino)-N-(2,2-difluoro-1,3-benzodioxol-5-yl)-1,3-thiazole-5-carboxamide], the negative-log IC50 (pIC50) in experiment [1] is greater than 5.52; in experiment [2], greater than 6.30; in experiment [3] it was greater than 6.30.
With `CNC(=O)Nc1cc(CNc2ncsc2C(=O)Nc2ccc3c(c2)OC(F)(F)O3)ccn1` [Example 18, N-(2,2-difluoro-1,3-benzodioxol-5-yl)-4-{[(2-{[(methylamino)carbonyl]amino}pyridin-4-yl)methyl]amino}-1,3-thiazole-5-carboxamide], the negative-log IC50 (pIC50) was greater than 5.52 in experiment [1], greater than 6.30 in experiment [2] and greater than 6.30 in experiment [3].
Take `COCC(=O)Nc1cc(CNc2ncsc2C(=O)Nc2ccc3c(c2)OC(F)(F)O3)ccn1` [Example 7, N-(2,2-difluoro-1,3-benzodioxol-5-yl)-4-[([2-[(methoxyacetyl)amino]pyridin-4-yl]methyl)amino]-1,3-thiazole-5-carboxamide]: the pIC50 is greater than 5.52 in experiment [1], greater than 6.30 in experiment [2] and greater than 6.30 in experiment [3].
With `CNC(=O)c1cc(CNc2ncsc2C(=O)Nc2ccc3c(c2)OC(F)(F)C(F)(F)O3)ccn1` [Example 2, N-methyl-4-{[(5-{[(2,2,3,3-tetrafluoro-2,3-dihydro-1,4-benzodioxin-6-yl)amino]carbonyl}-1,3-thiazol-4-yl)amino]methyl}pyridine-2-carboxamide], the pIC50 in experiment [1] was greater than 5.52; in experiment [2], greater than 6.30; in experiment [3], greater than 6.30.

These data come from patent US20090023753A1, “1,3-Thiazole-5-Carboxamides Useful as Cancer Chemotherapeutic Agents” (Bayer HealthCare AG, priority 2005, published 2009).
